Values joined by “and” are separate entries in the source; they are usually repeats but may differ in a detail not shown here. Equal values may be shown once. Read-outs that look alike come from different tables or passages of the source. Marks after values point to notes of the source that are not given here.
Columns and labels:
[1] = test system: LNCaP tumor; settings: reported study, cited from earlier work; for Tumor uptake (Max. LNCaP Tumor Uptake): 3 h post injection
[2] = test system: LNCaP xenograft tumor; assay: microPET/CT imaging of LNCaP xenograft tumor-bearing mice; type: in vivo; settings: for Max. LNCaP Tumor Uptake: image derived calculation of tumor uptake (microPET/CT), at time of maximum uptake; for Route of clearance / excretion: from microPET/CT images; for Time p.i. of max. LNCaP tumor uptake: microPET/CT imaging at 1, 2, 4, 6 h
Method: (§1) Inoculation of mice with xenografts. All animal studies were approved by the Institutional Animal Care and Use Committee of Weill Cornell Medicine and were undertaken in accordance with the guidelines set forth by the USPHS Policy on Humane Care and Use of Laboratory Animals. Animals were housed under standard conditions in approved facilities with 12 h light/dark cycles. Food and water was provided ad libitum throughout the course of the studies. Male inbred athymic nu/nu mice were purchased from The Jackson Laboratory. For inoculation in mice, LNCaP cells were suspended at 4×10^7 cells/mL in a 1:1 mixture of PBS:Matrigel (BD Biosciences). Each mouse was injected in the left flank with 0.25 mL of the cell suspension. The mice were imaged when the tumors reached approximately 200-400 mm^3, while biodistributions were conducted when tumors were in the range 100-400 mm^3.
Imaging. […] Specific activity was greater than […]. The mice were imaged by pPET/CT (Inveon™; Siemens Medical Solutions, Inc.) at 1 h, 2 h, 4 h, and 6 h post-injection ([^18F]fluorinated compounds) or 1 h and 3 h post-injection ([^68Ga]Ga-PSMA-HBED-CC). Total acquisition time was thirty minutes, and a CT scan was obtained either immediately before or immediately after the acquisition for both anatomical co-registration and attenuation correction. The data were reconstructed using the commercial Inveon™ software supplied by the vendor. Tumor uptake was estimated by drawing a region of interest (ROI).

[3] = target: T1, PSMA (Homo sapiens, UniProt Q04609); settings: for PSMA, competitive binding assay using LNCaP cells, literature value, cited from earlier work
T1 construct: host or cells: LNCaP

[4] = target: T2, PSMA on LNCaP cells (Homo sapiens, UniProt Q04609); assay: Competitive binding assay against 99mTc-MIP-1427 for binding to PSMA on LNCaP cells; settings: non-radioactive fluorine-containing ligands, 1 nM 99mTc-MIP-1427, 1 hour
T2 construct: host or cells: LNCaP
Method: Cell Culture. The human prostate cancer cell line, LNCaP, was obtained from the American Type Culture Collection. Cell culture supplies were from Invitrogen unless otherwise noted. LNCaP cells were maintained in RPMI-1640 medium supplemented with 10% fetal bovine serum (Hyclone), 4 mM L-glutamine, 1 mM sodium pyruvate, 10 mM N-2-hydroxyethylpiperazine-N-2-ethanesulfonic acid (HEPES), 2.5 mg/mL D-glucose, and 50 μg/mL gentamicin in a humidified incubator at 37° C./5% C02. Cells were removed from flasks for passage or for transfer to 12-well assay plates by incubating them with 0.25% trypsin/ethylenediaminetetraacetic acid (EDTA).
In vitro determination of IC50. IC50 values of the non-radioactive fluorine-containing ligands were determined by screening in a multi-concentration competitive binding assay against ^99mTc-((7S,12S,16S)-1-(1-(carboxymethyl)-1H-imidazol-2-yl)-2-((1-(carboxymethyl)-1H-imidazol-2-yl)methyl)-9,14-dioxo-2,8,13,15-tetraazaoctadecane-7,12,16,18-tetracarboxylic acid technetium tricarbonyl complex) (^99mTc-MIP-1427) for binding to PSMA on LNCaP cells, according to methods previously described. See Hillier S M, Maresca K P, Lu G, Merkin R D, Marquis J C, Zimmerman C N, Eckelman W C, Joyal J L, Babich J W. 99mTc-Labeled Small-Molecule Inhibitors of Prostate-Specific Membrane Antigen for Molecular Imaging of Prostate Cancer. J. Nucl. Med. 2013, 54, 1369-1376, incorporated herein by reference. The LNCaP cells were plated 48 hours prior to the experiment to achieve a density of approximately 5×10^5 cells/well (in triplicate) in RPMI-1640 medium supplemented with 0.25% bovine serum albumin prior to performing the assay. LNCaP cells were incubated for 1 hour with 1 nM ^99mTc-MIP-1427 in serum free RPMI-1640 medium in the presence of 1-10,000 nM test compounds. Radioactive incubation media was then removed by pipette and the cells were washed twice using 1 mL ice-cold HEPES buffer. Cells were harvested from the plates and transferred to tubes for radioactive counting using a Packard Cobra II Gamma Counter. IC50 values were determined by non-linear regression using GraphPad Prism software.

[5] = test system: LNCaP xenograft tumor; assay: Ex vivo biodistribution in LNCaP xenograft tumor-bearing mice; settings: for Tumor uptake / Max. LNCaP Tumor Uptake: n=5; for Tumor uptake relative to [68Ga]Ga-PSMA-HBED-CC: at the time of maximum tumor uptake; for Time p.i. of max. LNCaP tumor uptake: biodistribution at 1, 2, 4 h; for Max. LNCaP Tumor Uptake: biodistribution
Method: as §1
Biodistribution. LNCaP xenograft tumor-bearing mice (n=5 per time point) were injected via the tail vein with a bolus injection of 370 kBq (10 μCi) of either [^18F]RPS-040 or [^18F]RPS-041. The specific activity of the compounds was […], respectively. The mice were euthanized by asphyxiation under isofluorane at 1 h, 2 h and 4 h post injection. An additional set of mice (n=5) was co-administered [^18F]RPS-040 (370 kBq; 10 μCi) and 2-PMPA (approx. 250 μg; 10 mg/kg) and sacrificed at 1 h post injection to determine the uptake specificity. A full biodistribution study was conducted on all mice, and tissues were excised, weighed and counted in an automated γ-counter. Tissue time-activity values were expressed as percentage injected dose per gram of tissue (% ID/g). Statistical comparisons were performed using the standard Student's t-test for a 95% confidence interval.

[6] = test system: LNCaP tumor xenografts; settings: 1 h post injection, reported; cited from earlier work
[7] = test system: LNCaP tumor; settings: literature value, cited from earlier work
[8] = listed as [^68Ga]Ga-PSMA-HBED-CC
[9] = 1 h post injection, co-administered with 2-PMPA (blocked)

T2 sequence (Q04609 whole entry): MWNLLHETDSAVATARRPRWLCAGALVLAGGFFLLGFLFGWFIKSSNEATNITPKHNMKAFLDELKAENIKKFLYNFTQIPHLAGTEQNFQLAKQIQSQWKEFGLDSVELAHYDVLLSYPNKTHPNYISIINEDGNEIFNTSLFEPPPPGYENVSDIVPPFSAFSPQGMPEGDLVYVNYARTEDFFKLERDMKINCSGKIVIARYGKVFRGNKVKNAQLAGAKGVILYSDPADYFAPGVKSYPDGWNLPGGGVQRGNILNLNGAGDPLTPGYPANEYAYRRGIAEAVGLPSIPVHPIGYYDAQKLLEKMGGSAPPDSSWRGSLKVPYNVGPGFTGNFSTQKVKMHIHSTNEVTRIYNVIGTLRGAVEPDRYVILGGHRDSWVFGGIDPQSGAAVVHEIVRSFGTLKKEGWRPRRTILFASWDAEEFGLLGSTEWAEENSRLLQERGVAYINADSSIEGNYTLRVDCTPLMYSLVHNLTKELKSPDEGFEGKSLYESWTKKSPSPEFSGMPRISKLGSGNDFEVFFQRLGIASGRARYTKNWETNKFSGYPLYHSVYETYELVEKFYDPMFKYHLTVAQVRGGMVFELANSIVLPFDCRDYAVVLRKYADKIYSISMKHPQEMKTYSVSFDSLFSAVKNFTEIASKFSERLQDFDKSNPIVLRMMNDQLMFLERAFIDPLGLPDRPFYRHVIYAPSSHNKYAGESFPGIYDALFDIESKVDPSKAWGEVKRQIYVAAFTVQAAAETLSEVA
T1 sequence (Q04609 whole entry): as above

Structure (SMILES): O=C([O-])CN(CCN(CC(=O)[O-])Cc1cc(CCC(=O)NCCCCCC(=O)NCCCC[C@H](NC(=O)N[C@@H](CCC(=O)O)C(=O)O)C(=O)O)ccc1[O-])Cc1cc(CCC(=O)O)ccc1[O-].[68Ga+3].[OH3+] [^68Ga-PSMA-HBED-CC]
- Activity in the kidney ([1]; 1 h): 314.44±90.61 % ID/g
- Activity in the spleen ([1]; 1 h): 31.73±14.09 % ID/g
- Tumor uptake ([1]; 1 h post injection): 5.81±1.67 % ID/g
- Activity in the kidney ([1]; 3 h): 207.97±58.38 % ID/g
- Activity in the spleen ([1]; 3 h): 13.85±3.53 % ID/g
- Tumor uptake (Max. LNCaP Tumor Uptake) [1]: 6.27 ± 1.44 % ID/g
- Tumor uptake (Max. LNCaP Tumor Uptake) [1, 8]: 6.27±1.44 % ID/g
- Time p.i. of max. LNCaP tumor uptake ([1]; 1 h and 3 h): 3 h
- Uptake in the liver or intestine ([2]; microPET/CT, 1 h post injection): No uptake
- IC50 [3]: 24.3 ± 2 nM
- IC50 [3, 8]: ~24 nM

Structure (SMILES): O=C(O)CC[C@H](NC(=O)N[C@@H](CCCCNC(=O)Nc1cccc(-c2cn(CCF)nn2)c1)C(=O)O)C(=O)O [RPS-040, (((S)-1-Carboxy-5-(3-(3-(1-(2-fluoroethyl)-1H-1,2,3-triazol-4-yl)phenyl)ureido)pentyl)carbamoyl)-L-glutamic acid]
- IC50 [4]: 7 nM
- Max. LNCaP Tumor Uptake [2]: 14.30 % ID/g
- Tumor-to-blood ratio ([5]; 1 h post injection): 28.8±8.06
- Tumor-to-blood ratio relative to [68Ga]Ga-PSMA-HBED-CC ([5]; 1 h post injection): three-fold greater
- Tumor-to-kidney ratio (contrast) relative to [68Ga]Ga-PSMA-HBED-CC ([5]; 1 h post injection): ten
- Uptake in the kidneys [5, 9]: 5.95±1.65 % ID/g
- Uptake in the spleen [5, 9]: 0.32±0.05 % ID/g
- Tumor uptake [5, 9]: 1.75±0.15 % ID/g
- Uptake in the kidneys ([5]; 1 h post injection, unblocked): 74.24±10.71 % ID/g
- Uptake in the spleen ([5]; 1 h post injection, unblocked): 4.97±1.55 % ID/g
- Tumor uptake ([5]; 1 h post injection, unblocked): 12.69±1.56 % ID/g
- Uptake in the kidneys ([5]; 2 h post injection): 60.94±8.06 % ID/g
- Uptake in the liver ([5]; 2 h post injection): 4.72±0.93 % ID/g
- Uptake in the spleen ([5]; 2 h post injection): 3.23±1.26 % ID/g
- Tumor-to-blood ratio ([5]; 4 h post injection): 92.93±75.67
- Tumor uptake relative to [68Ga]Ga-PSMA-HBED-CC [5]: more than two-fold greater
- Time p.i. of max. LNCaP tumor uptake [5]: 2 h
- Max. LNCaP Tumor Uptake ([5]; 2 h post injection): 14.30 ± 2.49^ % ID/g
- Max. LNCaP Tumor Uptake ([5]; 2 h post injection, listed as [^18F]RPS-040): 14.30±2.49 % ID/g

Structure (SMILES): O=C(O)CC[C@H](NC(=O)N[C@@H](CCCCNC(=O)Nc1ccccc1-c1cn(CCF)nn1)C(=O)O)C(=O)O [RPS-042, (((S)-1-Carboxy-5-(3-(2-(1-(2-fluoroethyl)-1H-1,2,3-triazol-4-yl)phenyl)ureido)pentyl)carbamoyl)-L-glutamic acid]
- IC50 [4]: 10.2 nM
- Route of clearance / excretion [2]: clearance via the hepatobiliary pathway in addition to renal clearance
- Max. LNCaP Tumor Uptake [2]: 10.06 ± 1.33^c % ID/g
- Time p.i. of max. LNCaP tumor uptake [2]: 2 h

Structure (SMILES): O=C(O)CC[C@H](NC(=O)N[C@@H](CCCCNC(=O)Nc1ccccc1OCc1cn(CCF)nn1)C(=O)O)C(=O)O [RPS-039, (((S)-1-Carboxy-5-(3-(2-((1-(2-fluoroethyl)-1H-1,2,3-triazol-4-yl)methoxy)phenyl)ureido)pentyl)carbamoyl)-L-glutamic acid]
- IC50 [4]: 14 nM
- Route of clearance / excretion [2]: clearance via the hepatobiliary pathway in addition to renal clearance
- Max. LNCaP Tumor Uptake [2]: 5.87±0.27 % ID/g and 5.89 ± 0.27^c % ID/g
- Time p.i. of max. LNCaP tumor uptake [2]: 2 h

Structure (SMILES): O=C(O)CCC(NC(=O)NC(CCCCNC(=O)c1ccc(F)nc1)C(=O)O)C(=O)O (centres unmarked) [DCFPyL, 2-(3-{1-Carboxy-5-[(6-fluoropyridine-3-carbonyl)-amino]-pentyl}-ureido)-pentanedioic acid, reference compound]
- SUVmax [6]: 1.1±0.1
- Max. LNCaP Tumor Uptake [2]: 5.71 ± 0.61^c % ID/g
- Time p.i. of max. LNCaP tumor uptake [2]: 1 h
- Tumor washout ([2]; microPET/CT imaging up to 6 h post injection): rapid tumor washout

Structure (SMILES): O=C(O)CC[C@H](NC(=O)N[C@@H](CCCCNC(=O)Nc1ccc(OCc2cn(CCF)nn2)cc1)C(=O)O)C(=O)O [RPS-038, (((S)-1-Carboxy-5-(3-(4-((1-(2-fluoroethyl)-1H-1,2,3-triazol-4-yl)methoxy)phenyl)ureido)pentyl)carbamoyl)-L-glutamic acid]
- IC50 [4]: 21.3 nM
- Max. LNCaP Tumor Uptake [2]: 8.87 ± 0.64^c % ID/g
- Time p.i. of max. LNCaP tumor uptake [2]: 2 h

Structure (SMILES): O=C(O)CC[C@H](NC(=O)N[C@@H](CCCCNC(=O)Nc1ccc(-c2cn(CCF)nn2)cc1)C(=O)O)C(=O)O [RPS-041, (((S)-1-Carboxy-5-(3-(4-(1-(2-fluoroethyl)-1H-1,2,3-triazol-4-yl)phenyl)ureido)pentyl)carbamoyl)-L-glutamic acid]
- IC50 [4]: 3.2 nM
- Max. LNCaP Tumor Uptake [2]: 12.51 % ID/g
- Tumor-to-blood ratio ([5]; 1 h post injection): 20.78±7.87
- Tumor-to-blood ratio relative to [68Ga]Ga-PSMA-HBED-CC ([5]; 1 h post injection): more than two-fold
- Tumor-to-kidney ratio (contrast) relative to [68Ga]Ga-PSMA-HBED-CC ([5]; 1 h post injection): twelve-fold greater
- Contrast (tumor-to-background) relative to [18F]RPS-040 ([5]; 2 h post injection): two-fold greater
- Uptake in the kidneys ([5]; 2 h post injection): 23.93±5.45 % ID/g
- Uptake in the liver ([5]; 2 h post injection): 2.51±0.21 % ID/g
- Uptake in the spleen ([5]; 2 h post injection): 1.13±0.47 % ID/g
- Tumor-to-blood ratio ([5]; 4 h post injection): 118.4±69.4
- Tumor uptake relative to [68Ga]Ga-PSMA-HBED-CC [5]: nearly two-fold greater
- Time p.i. of max. LNCaP tumor uptake [5]: 2 h
- Max. LNCaP Tumor Uptake ([5]; 2 h post injection): 10.86 ± 1.03^ % ID/g
- Max. LNCaP Tumor Uptake ([5]; 2 h post injection, listed as [^18F]RPS-041): 10.86±1.03 % ID/g

Structure (SMILES): O=C(O)CC[C@H](NC(=O)N[C@@H](CCCCNC(=O)Nc1cccc(OCc2cn(CCF)nn2)c1)C(=O)O)C(=O)O [RPS-043, (((S)-1-Carboxy-5-(3-(3-((1-(2-fluoroethyl)-1H-1,2,3-triazol-4-yl)methoxy)phenyl)ureido)pentyl)carbamoyl)-L-glutamic acid]
- IC50 [4]: 36.5 nM
- Max. LNCaP Tumor Uptake [2]: 9.04 ± 1.88^c % ID/g
- Time p.i. of max. LNCaP tumor uptake [2]: 2 h

Structure (SMILES): O=C(O)CC[C@H](NC(=O)N[C@@H](CCCCNC(=O)Nc1ccc(I)cc1)C(=O)O)C(=O)O [MIP-1095]
- IC50 [4]: 0.3 nM
- Max. LNCaP Tumor Uptake ([7]; 4 h p.i.): 34.3 ± 12.7^a % ID/g
- Time p.i. of max. LNCaP tumor uptake [7]: 4 h

Reference: patent US12679812B2, “18F-labeled triazole containing PSMA inhibitors” (Cornell University, priority 2016, dated 2026)
